Data set [1] deals with S. aureus ATCC25923. The data set can be described thus: MIC, microdilution in MH broth (initial screening). The format is cell-based, Staphylococcus aureus. The conditions noted are these: 24 h, 37 °C, resazurin, triplicate. How it is done:
(§1) The minimum inhibitory concentrations (MIC) were determined following the Clinical and Laboratory Standards Institute (CLSI) recommendations. Antibacterial and antifungal activity tests were performed using the microdilution method. For initial screening, peptides were tested against C. albicans ATCC18804, E. coli ATCC25922, and S. aureus ATCC25923. Briefly, bacterial cells in MH broth (80 μL aliquots containing 1.5 × 10^7 CFU) were incubated with synthetic peptides (serial dilution from 512 to 1 μM) dissolved in Milli-Q water. After incubation for 24 h at 37 °C, the microtiter plates were analyzed visually by addition of resazurin. For the antifungal assays, the culture medium was RPMI 1640 buffered with L-glutamine (pH 7.2), 0.165 M morpholinepropanesulfonic acid (MOPS), and 2% glucose. Cell suspensions (final concentration of 1 × 10^3–2.5 × 10^3 CFU/mL) were inoculated on a microdilution plate previously prepared with serially diluted synthetic peptides (128–1 μM). The plates were incubated for 48 h at 37 °C. Each assay was performed in triplicates. Additionally, amphotericin B and fluconazole were used as the control drugs. MIC was defined as the lowest concentration of peptide at which no growth was detected.
Background: Dilution methods test growth across graded concentrations, often in twofold steps.

Data set [2] deals with C. albicans ATCC18804. The data set is described as follows: Antifungal MIC, microdilution in RPMI 1640. The format is cell-based, Candida albicans. Conditions: C. albicans ATCC18804, RPMI 1640, 48 h, 37 °C, peptides 128-1 µM, triplicate. The protocol: as §1
Data set [3] concerns human red blood cells. The data set can be described thus: Hemolysis assay. The conditions noted are these: 1% (v/v) human erythrocytes in Tris-saline pH 7.4, 1 h, 37 °C, absorbance 405 nm, triplicate. It is filed as cell-based. How it is done: Peptide hemolysis assays were performed as previously described by Castro et al.. Briefly, freshly prepared human red blood cells (RBCs) were washed three times with 0.01 M Tris-HCl (pH 7.4) containing 0.15 M NaCl (Tris-saline). A suspension of 1% (v/v) erythrocytes was made with packed RBCs resuspended in Tris-saline. Peptides were dissolved in Tris-saline at an initial concentration of […] and serially diluted in the same buffer to determine the concentration that triggered 50% hemolysis (HC50). As the positive control (100% lysis), 1% (v/v) Triton X-100 solution was used. After 1 h of incubation at 37 °C, the samples were centrifuged at 3000× g for 5 min. Then, 100 µL aliquots of the supernatant were transferred to 96-well microplates, and the absorbance was determined at 405 nm. The assay was performed in triplicates.

Data set [4] concerns S. epidermidis ATCC35984. The format is cell-based, Staphylococcus epidermidis. The conditions noted are these: for MIC: S. epidermidis ATCC35984, CAMHB, 24 h, 37 °C, duplicate; for MBC: S. epidermidis ATCC35984, sub-culture on MH agar, 99.9% death. The protocol:
(§2) After confirming antibacterial activity, the peptides were tested against gram-positive and gram-negative multidrug-resistant bacteria, including strains of clinical origin. The peptides, p-BthTX-I, des-Lys^12/(p-BthTX-I)2, and Lys^13-(p-BthTX-I)2 were serially diluted (512–1 μM) in cation-adjusted BBL MH II broth (CAMHB; Becton, Dickson and Co., Sparks, MD, USA) as described by CLSI. Bacteria at 5.0 × 10^5 CFU/mL were added to the media and incubated for 24 h at 37 °C. […] Assays were performed in duplicates, and sterile broth was used as the negative control. To determine the minimal bactericidal concentration (MBC), 100 µL from each well of the MIC assay plates that inhibited bacterial growth were sub-cultured onto MH agar (MHA) plates. […] If the ratio of MBC/MIC was >4, the activity of the peptide was considered bacteriostatic, as described previously.

Data set [5] has as its system S. aureus ATCC25923. It is filed as cell-based, Staphylococcus aureus. Conditions: for MIC: S. aureus ATCC25923, CAMHB, 24 h, 37 °C, duplicate; for MBC: S. aureus ATCC25923, sub-culture on MH agar, 99.9% death. The protocol: as §2
Data set [6] has as its system S. aureus SA88. It is filed as cell-based, Staphylococcus aureus. Conditions: for MIC: S. aureus SA88 (MRSA, daptomycin heteroresistant), CAMHB, 24 h, 37 °C, duplicate; for MBC: S. aureus SA88, sub-culture on MH agar, 99.9% death. How it is done: as §2
Data set [7] relates to E. faecium HSJRP8. It is filed as cell-based, Enterococcus faecium. Conditions: for MIC: E. faecium HSJRP8 (daptomycin resistant), CAMHB, 24 h, 37 °C, duplicate; for MBC: E. faecium HSJRP8, sub-culture on MH agar, 99.9% death. The protocol:
as §2

For data set [8], the system named is E. faecium VRE16. It is filed as cell-based, Enterococcus faecium. Conditions: for MIC: E. faecium VRE16 (vancomycin resistant), CAMHB, 24 h, 37 °C, duplicate; for MBC: E. faecium VRE16, sub-culture on MH agar, 99.9% death. The protocol:
as §2

The subject of data set [9] is K. pneumoniae ATCCBAA1705. The format is cell-based, Klebsiella pneumoniae. Conditions: for MIC: K. pneumoniae ATCCBAA1705 (KPC), CAMHB, 24 h, 37 °C, duplicate; for MBC: K. pneumoniae ATCCBAA1705, sub-culture on MH agar, 99.9% death. How it is done:
as §2

For data set [10], the system named is K. pneumoniae NDM-1. It is filed as cell-based, Klebsiella pneumoniae. The conditions noted are these: for MIC: K. pneumoniae NDM-1, CAMHB, 24 h, 37 °C; for MBC: K. pneumoniae NDM-1, sub-culture on MH agar, 99.9% death. The protocol: as §2
A short description of data set [11]: Serum stability assay. The format is in vitro ADME. Conditions: 25% human male serum, 37 °C. How it is done: Crude peptides were purified by semi-preparative HPLC on a Shimadzu system (Tokyo, Japan) using a C18 reversed phase column (10 × 250 mm, Phenomenex, Torrance, CA, USA). Solvent A contained 0.045% trifluoroacetic acid (TFA) in water. Elution was achieved using a linear gradient (5–35%) of solvent B (0.036% TFA in acetonitrile) for 120 min at 5 mL/min. The purity of the peptides was determined by analytical HPLC on a Shimadzu system using a C18 column (4.6 × 150 mm, Phenomenex, Torrance, CA, USA) with a linear gradient of solvent B (5–95%) for 30 min at 1 mL/min. Liquid chromatography-mass spectrometry (LC/MS) was performed using a C18 column (2.0 × 30 mm, Shimadzu) attached to analytical HPLC and an amaZon ion trap mass spectrometer (Bruker Daltonics) using ESI. Peptides were eluted using a linear gradient of solvent B (5–95%) for 15 min at 0.2 mL/min.
Peptide stability assays were performed in diluted serum as previously described with minor modifications. First, 2 mL of 25% human male serum was centrifuged at 3000× g for 10 min; the supernatant was collected and incubated for 15 min at 37 °C. Next, peptides were added to the serum to a final concentration of 100 µM. Then, 200 µL of samples were collected at different time points during the assays, which were performed in duplicate. Analyses were performed by LC/MS and analytical HPLC, as described above.

Broadly, the MIC is the smallest concentration in the dilution series that meets the test's criterion for growth inhibition. A high value points to weaker potency. By MBC is commonly meant the smallest concentration meeting the test's criterion for killing.

≈ marks a conversion by molar mass, not a printed value. Where two headings read alike, the source gives them in different places. Bridge positions count the residues as written; N and C are the ends. Peptide text beside a SMILES is read from it. I, II: the chains in the order shown.

Turning to `CC(C)C[C@H](NC(=O)[C@H](Cc1c[nH]cn1)NC(=O)[C@H](Cc1ccc(O)cc1)NC(=O)[C@H](CCCNC(=N)N)NC(=O)[C@H](Cc1ccc(O)cc1)NC(=O)[C@H](CCCCN)NC(=O)[C@@H](N)CCCCN)C(=O)N[C@@H](CCCCN)C(=O)N1CCC[C@H]1C(=O)N[C@@H](Cc1ccccc1)C(=O)N[C@@H](CSSC[C@H](NC(=O)[C@H](Cc1ccccc1)NC(=O)[C@@H]1CCCN1C(=O)[C@H](CCCCN)NC(=O)[C@H](CC(C)C)NC(=O)[C@H](Cc1c[nH]cn1)NC(=O)[C@H](Cc1ccc(O)cc1)NC(=O)[C@H](CCCNC(=N)N)NC(=O)[C@H](Cc1ccc(O)cc1)NC(=O)[C@H](CCCCN)NC(=O)[C@@H](N)CCCCN)C(=O)N[C@@H](CCCCN)C(=O)N[C@@H](CCCCN)C(=O)O)C(=O)N[C@@H](CCCCN)C(=O)N[C@@H](CCCCN)C(=O)O` [(p-BthTX-I)2], the MIC is recorded as 64 µM (≈ 222 µg/mL) in data set [1]; over 128 µM in data set [2]; 16 µM (≈ 55.6 µg/mL) in data set [4]; 512 µM (≈ 1780 µg/mL) in data set [5]; 256 µM (≈ 890 µg/mL) in data set [6]; 8 µM (≈ 27.8 µg/mL) in data set [7]. Moreover, the MIC in data set [8] turned out to be 32 µM (≈ 111 µg/mL); in data set [9] it was 256 µM (≈ 890 µg/mL); in [10] it was 256 µM (≈ 890 µg/mL). Further, the “HC50 (peptide concentration that produced 50% hemolysis)” value in [3] was over 128 µM. Further, the MBC is reported as 64 µM (≈ 222 µg/mL) in data set [4]; 512 µM (≈ 1780 µg/mL) in [5]; 256 µM (≈ 890 µg/mL) in data set [6]; over 512 µM in [7]; over 512 µM in data set [8]; 512 µM (≈ 1780 µg/mL) in data set [9]. The same molecule yielded a minimal bactericidal concentration (MBC) in data set [10] of 512 µM (≈ 1780 µg/mL). The “Incubation time after which the peptide was completely degraded in human serum” value in data set [11] (peptide 100 µM, analytical HPLC (C18) and LC/MS, duplicate) amounted to 30 min.

As to `CC(C)C[C@H](NC(=O)[C@H](Cc1c[nH]cn1)NC(=O)[C@H](Cc1ccc(O)cc1)NC(=O)[C@H](CCCNC(=N)N)NC(=O)[C@H](Cc1ccc(O)cc1)NC(=O)[C@H](CCCCN)NC(=O)[C@@H](N)CCCCN)C(=O)N[C@@H](CCCCN)C(=O)N1CCC[C@H]1C(=O)N[C@@H](Cc1ccccc1)C(=O)N[C@@H](CSSC[C@H](NC(=O)[C@H](Cc1ccccc1)NC(=O)[C@@H]1CCCN1C(=O)[C@H](CCCCN)NC(=O)[C@H](CC(C)C)NC(=O)[C@H](Cc1c[nH]cn1)NC(=O)[C@H](Cc1ccc(O)cc1)NC(=O)[C@H](CCCNC(=N)N)NC(=O)[C@H](Cc1ccc(O)cc1)NC(=O)[C@H](CCCCN)NC(=O)[C@@H](N)CCCCN)C(=O)O)C(=O)O` [des-Lys^12/Lys^13-(p-BthTX-I)2] (I: H-KKYRYHLKPFC-OH / II: H-KKYRYHLKPFC-OH; disulfide I:11-II:11), the MIC in data set [1] is given as 128 µM (≈ 379 µg/mL); in data set [2] it was over 128 µM; in data set [4], 32 µM (≈ 94.8 µg/mL); in data set [5], 128 µM (≈ 379 µg/mL); in data set [6] it was 256 µM (≈ 759 µg/mL); in data set [7], 8 µM (≈ 23.7 µg/mL). Also, the minimum inhibitory concentration (MIC) in data set [8] turned out to be 16 µM (≈ 47.4 µg/mL); in data set [9] it was 32 µM (≈ 94.8 µg/mL); in data set [10], 256 µM (≈ 759 µg/mL). The “HC50 (peptide concentration that produced 50% hemolysis)” value in data set [3] is over 128 µM. For the same molecule, the minimum bactericidal concentration (MBC) in [4] turned out to be 32 µM (≈ 94.8 µg/mL); in [5], 256 µM (≈ 759 µg/mL); in data set [6], 512 µM (≈ 1520 µg/mL); in data set [7] it was 32 µM (≈ 94.8 µg/mL); in data set [8] it was 64 µM (≈ 190 µg/mL); in data set [9] it was 64 µM (≈ 190 µg/mL). The molecule further gave an MBC in [10] of 512 µM (≈ 1520 µg/mL). The “Incubation time in human serum after which further degradation products were observed” value in data set [11] (mass spectrometry, data not shown) was 30 h. In [11] (product formed from (p-BthTX-I)2 100 µM, LC/MS and HPLC), the “Incubation time in human serum after which the peptide remained intact (stable)” value is listed as 24 h.

The values above are taken from paper PMC6150245 (Molecules : A Journal of Synthetic Chemistry and Natural …, 2017).
